The values below come from paper PMC3130732, “E. coli Histidine Triad Nucleotide Binding Protein 1 (ecHinT) Is a Catalytic Regulator of D-Alanine Dehydrogenase (DadA) Activity In Vivo” (PLoS ONE, 2011).

By pKi is commonly meant −log10 of the Ki, conventionally taken in molar units.

SMILES strings stand for the structures. pKi: −log10 of the molar value.

This experiment has as its target T1, E. coli Histidine Triad Nucleotide Binding Protein 1 (ecHinT) (Escherichia coli, UniProt P0ACE7).
T1 construct: gene hinT
The experiment can be described thus: spectrophotometric phosphoramidase assay. The experiment is classed as biochemical.

T1 sequence (P0ACE7 whole entry): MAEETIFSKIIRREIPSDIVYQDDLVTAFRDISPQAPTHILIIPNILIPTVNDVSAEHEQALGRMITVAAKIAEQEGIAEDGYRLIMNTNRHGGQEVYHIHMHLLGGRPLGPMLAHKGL

`Nc1nc2c(ncn2[C@@H]2O[C@H](COC(=O)NCCc3c[nH]c4ccccc34)[C@@H](O)[C@H]2O)c(=O)[nH]1` [TpGc, 5′-O-[(3-indolyl)-1-ethyl]carbamoyl guanosine]: the pKi is 4.38.
